What was measured:
[1] = biological target: T1, Dihydroorotate dehydrogenase (quinone), mitochondrial (Homo sapiens, UniProt Q02127); experiment: Inhibition of human N-terminal SUMO-tagged DHODH expressed in Escherichia coli BL21(DE3) at 100 nM using dihydroorotate as substrate by DCIP based microplate reader analysis relative to control
[2] = biological target: T1, Dihydroorotate dehydrogenase (quinone), mitochondrial; experiment: Inhibition of human N-terminal SUMO-tagged DHODH expressed in Escherichia coli BL21(DE3) using dihydroorotate substrate by DCIP based microplate reader analysis
[3] = biological target: T1, Dihydroorotate dehydrogenase (quinone), mitochondrial; experiment: Inhibition of human N-terminal SUMO-tagged DHODH expressed in Escherichia coli BL21(DE3) at 1 uM using dihydroorotate as substrate by DCIP based microplate reader analysis relative to control
Raji = experiment: Antiproliferative activity against human Raji cells assessed as cell growth inhibition measured after 96 hrs by MTT assay; format: functional, cell-based
HCT-116 [4] = experiment: Antiproliferative activity against human HCT-116 cells expressing human DHODH assessed as reduction in cell viability measured after 96 hrs by MTT assay; format: functional, cell-based; conditions: HCT-116, 96 h
[5] = Toxicity in BALB/c mouse assessed as histopathological changes in kidney at 400 mg/kg, po measured after 14 days by H and E staining analysis; format: organism-based; conditions: in vivo, 336 h, time 14 day
[6] = Hepatotoxicity in BALB/c mouse assessed as change in blood ALP level at 400 mg/kg, po measured after 14 days by biochemical assay; format: toxicity, organism-based; conditions: in vivo, 336 h, time 14 day
[7] = Acute toxicity in BALB/c mouse assessed as animal death at 400 mg/kg, po measured at 2 days; format: organism-based; conditions: in vivo, 48 h, time 2 day
[8] = Renal toxicity in BALB/c mouse assessed as change in blood uric acid level at 400 mg/kg, po measured after 14 days by biochemical assay; format: organism-based; conditions: in vivo, 336 h, time 14 day
[9] = Toxicity in BALB/c mouse xenografted with HCT-116 cells assessed as animal death at 30 mg/kg, po and measured at 18 day; format: organism-based; conditions: in vivo, 432 h
[10] = Toxicity in BALB/c mouse assessed as histopathological changes in heart at 400 mg/kg, po measured after 14 days by H and E staining analysis; format: organism-based; conditions: in vivo, 336 h, time 14 day
[11] = Toxicity in BALB/c mouse assessed as histopathological changes in lungs at 400 mg/kg, po measured after 14 days by H and E staining analysis; format: organism-based; conditions: in vivo, 336 h, time 14 day
[12] = Toxicity in BALB/c mouse xenografted with HCT-116 cells assessed as side effect at 30 mg/kg, po and measured at 18 day; format: organism-based; conditions: in vivo, 432 h
HCT-116 [13] = experiment: Antitumor activity against human HCT-116 cells xenografted in nude mouse assessed as tumor growth inhibition at 30 mg/kg, po; format: functional; conditions: read-out: TGI
[14] = Toxicity in BALB/c mouse assessed as histopathological changes in spleen at 400 mg/kg, po measured after 14 days by H and E staining analysis; format: organism-based; conditions: in vivo, 336 h, time 14 day
[15] = Toxicity in BALB/c mouse assessed as histopathological changes in liver at 400 mg/kg, po measured after 14 days by H and E staining analysis; format: organism-based; conditions: in vivo, 336 h, time 14 day
[16] = Toxicity in BALB/c mouse assessed as adverse effect at 400 mg/kg, po measured for 14 days; format: organism-based; conditions: in vivo, 336 h, time 14 day

T1 sequence (Q02127 whole entry): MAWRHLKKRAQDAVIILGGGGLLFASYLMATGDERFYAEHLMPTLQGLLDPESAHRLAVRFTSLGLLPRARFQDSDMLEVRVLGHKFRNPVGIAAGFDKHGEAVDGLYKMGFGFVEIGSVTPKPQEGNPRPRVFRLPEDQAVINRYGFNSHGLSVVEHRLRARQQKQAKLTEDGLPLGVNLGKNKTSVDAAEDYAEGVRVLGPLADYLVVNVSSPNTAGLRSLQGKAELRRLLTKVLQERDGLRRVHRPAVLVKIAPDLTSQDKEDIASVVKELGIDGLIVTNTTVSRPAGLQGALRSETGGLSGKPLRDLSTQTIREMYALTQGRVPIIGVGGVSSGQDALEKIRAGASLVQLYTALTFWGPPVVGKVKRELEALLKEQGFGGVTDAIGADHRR

| SMILES | inhibition [1] | IC50 [2] | inhibition [3] | other results |
| --- | --- | --- | --- | --- |
| CCC(C)Oc1cc(NC(=O)/C(C#N)=C(/C)O)c(F)cc1-c1cccc(Cl)c1C (centres undefined) | 85.3% | 22.2 nM | 98% |  |
| C=CCOc1cc(NC(=O)/C(C#N)=C(/C)O)c(F)cc1-c1cccc(OC)c1 | 58.5% |  | 92.5% |  |
| CCC(C)Oc1cc(NC(=O)/C(C#N)=C(/C)O)c(F)cc1-c1cccc(OC(F)(F)F)c1 (centres undefined) | 92.4% | 10.9 nM | 99.2% | IC50 (Raji): 130 nM |
| CCC(C)Oc1cc(NC(=O)/C(C#N)=C(/C)O)c(F)cc1-c1ccc(OC)cc1 (centres undefined) | 72.1% | 39.8 nM | 94.7% |  |
| CCC(C)Oc1cc(NC(=O)/C(C#N)=C(/C)O)c(F)cc1-c1ccc(F)cc1 (centres undefined) | 72.5% | 37.8 nM | 96.1% |  |
| CCCOc1cc(NC(=O)/C(C#N)=C(/C)O)c(F)cc1-c1cccc(OC)c1 | 68.2% | 34.6 nM | 93.6% |  |
| CCC(C)Oc1cc(NC(=O)/C(C#N)=C(/C)O)c(F)cc1-c1ccnc(F)c1 (centres undefined) | 87.7% | 20.3 nM | 98.5% |  |
| CCC(C)Oc1cc(NC(=O)/C(C#N)=C(/C)O)c(F)cc1-c1cccc(F)c1C (centres undefined) | 82.5% | 26.1 nM | 97.8% |  |
| COc1cccc(-c2cc(F)c(Nc3ncccc3C(=O)O)c(F)c2)c1 [ASLAN-003] |  |  |  | IC50 (Raji): 270 nM |
| CCC(CC)Oc1cc(NC(=O)/C(C#N)=C(/C)O)c(F)cc1-c1cccc(OC)c1 | 84.6% | 16.4 nM | 98.1% |  |
| CCC(C)Oc1cc(NC(=O)/C(C#N)=C(/C)O)c(F)cc1-c1ccccc1F (centres undefined) | 82.9% | 27.3 nM | 97.3% |  |
| C/C(O)=C(\C#N)C(=O)Nc1cc(OC(C)C)c(-c2cccc(C(F)(F)F)c2)cc1F |  | 10.2 nM |  | IC50 (HCT-116 [4]): 300 nM; Activity [5]: Non-Toxic; Activity [6]: Toxic; Activity [7]: Toxic; Activity [8]: Toxic; Activity [9]: Non-Toxic; IC50 (Raji): 70.1 nM; Activity [10]: Non-Toxic; Activity [11]: Non-Toxic; Activity [12]: Non-Toxic; inhibition in vivo at 30 mg/kg (HCT-116 [13]): 54.4%; Activity [14]: Non-Toxic; Activity [15]: Non-Toxic; Activity [16]: Non-Toxic |
| COc1cccc(-c2cc(F)c(NC(=O)/C(C#N)=C(/C)O)cc2OCc2ccccc2F)c1 | 48.3% |  | 89.8% |  |
| CCC(C)Oc1cc(NC(=O)/C(C#N)=C(/C)O)c(F)cc1-c1ccccc1Cl (centres undefined) | 86.3% | 21.8 nM | 98.8% |  |
| CCC(C)Oc1cc(NC(=O)/C(C#N)=C(/C)O)c(F)cc1-c1ccc2c(c1)OCO2 (centres undefined) | 83.1% | 28.8 nM | 96.9% |  |
| CCC(C)Oc1cc(NC(=O)/C(C#N)=C(/C)O)c(F)cc1-c1cccc(Cl)c1 (centres undefined) | 87.5% | 20.1 nM | 98.9% |  |
| COc1cccc(-c2cc(F)c(NC(=O)/C(C#N)=C(/C)O)cc2OCc2c(F)cccc2Cl)c1 | 40.3% |  | 79.7% |  |
| CCCC(C)Oc1cc(NC(=O)/C(C#N)=C(/C)O)c(F)cc1-c1cccc(OC)c1 (centres undefined) | 86.5% | 14.4 nM | 98.4% |  |
| COc1cccc(-c2cc(F)c(NC(=O)/C(C#N)=C(/C)O)cc2OCC(C)C)c1 | 77.6% | 30.1 nM | 96.2% |  |
| CCC(C)Oc1cc(NC(=O)/C(C#N)=C(/C)O)c(F)cc1-c1cccc(OC)c1 (centres undefined) | 91.2% | 9.2 nM | 99.2% | IC50 (Raji): 610 nM |

From ChEMBL document CHEMBL5137035 (Eur J Med Chem, 2022)
